PMC11406361, “Several orphan solute carriers functionally identified as organic cation transporters: Substrates specificity compared with known cation transporters” (The Journal of Biological Chemistry, 2024)
Like-named read-outs stand apart in the source and are kept apart here.

Experiments:
SLC35G3 [1] = target: T1, SLC35G3 (Homo sapiens, UniProt Q8N808); test: Uptake ratio screen, SLC35G3-overexpressing HEK293 over empty vector cells; format: cell-based; parameters: by amplifying the entire gene-of-interest within the HEK293 genome via a long-range PCR; details: 2.5 μM substrate, 2 min, HEK293
T1 sequence (Q8N808 whole entry): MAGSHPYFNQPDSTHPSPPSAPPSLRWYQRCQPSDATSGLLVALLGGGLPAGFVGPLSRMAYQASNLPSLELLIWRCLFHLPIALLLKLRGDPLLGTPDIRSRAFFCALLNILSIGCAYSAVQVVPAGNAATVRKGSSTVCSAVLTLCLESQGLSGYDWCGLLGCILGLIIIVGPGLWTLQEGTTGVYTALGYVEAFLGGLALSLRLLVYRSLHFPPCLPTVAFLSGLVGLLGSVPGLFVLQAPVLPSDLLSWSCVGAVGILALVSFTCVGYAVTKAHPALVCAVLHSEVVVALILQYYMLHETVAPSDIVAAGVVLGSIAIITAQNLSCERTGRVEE

SLC35G3 [2] = target: T1, SLC35G3
SLC22A15 = target: T2, SLC22A15 (Homo sapiens, UniProt Q8IZD6); test: Uptake ratio screen, SLC22A15-overexpressing HEK293 over empty vector cells; format: cell-based; details: 2.5 μM (nicotine 10 μM), 2 min
T2 construct: by amplifying the entire gene-of-interest within the HEK293 genome via a long-range PCR
T2 sequence (Q8IZD6 whole entry): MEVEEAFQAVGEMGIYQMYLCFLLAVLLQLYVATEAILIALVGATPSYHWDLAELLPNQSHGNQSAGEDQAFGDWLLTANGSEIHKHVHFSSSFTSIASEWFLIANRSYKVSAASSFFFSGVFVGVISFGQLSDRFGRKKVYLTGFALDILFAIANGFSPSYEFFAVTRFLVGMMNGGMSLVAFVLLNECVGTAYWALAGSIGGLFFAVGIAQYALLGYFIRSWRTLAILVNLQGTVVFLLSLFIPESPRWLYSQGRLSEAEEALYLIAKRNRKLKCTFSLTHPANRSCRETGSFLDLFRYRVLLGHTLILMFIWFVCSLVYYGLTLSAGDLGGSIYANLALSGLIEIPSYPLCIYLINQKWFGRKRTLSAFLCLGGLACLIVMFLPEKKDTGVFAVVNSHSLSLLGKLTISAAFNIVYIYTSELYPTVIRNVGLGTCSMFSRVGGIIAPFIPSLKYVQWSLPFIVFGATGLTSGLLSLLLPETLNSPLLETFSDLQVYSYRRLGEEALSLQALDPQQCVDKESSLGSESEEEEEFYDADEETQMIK
Protocol: (§1) Typically discussed substrates of the proton organic-cation antiporter ([14]) are highlighted in dark green in Figure 1.
(§2) In preparation for transport experiments, 24-well plates were pre-coated with poly-D-lysine (Sigma-Aldrich) and 300,000 cells were plated per well and incubated for 48 h. Firstly, the 24-well plate was placed on a heating plate at 37 °C, and the cells were washed with 37 °C HBSS^+ buffer (Hank’s balanced salt solution supplemented with 10 mM Hepes and adjusted to pH 7.4; Thermo Fisher Scientific). The substance-of-interest, which was diluted in 37 °C HBSS^+ to a desired concentration, was added to the cells for exactly 2 min. […] The uptake was stopped with ice-cold HBSS^+, and the 24-well plate was removed from the heating plate. The cells were washed twice with the cold HBSS^+ before they were lysed for 15 min with 80% (v/v) acetonitrile containing the respective internal standard for mass spectrometry. For variations in seeded cell numbers between the cell lines, several wells were lysed in RIPA buffer and used for total protein quantification using a bicinchoninic assay ([74]) and bovine serum albumin as calibration.
The intracellular drug concentrations after transport experiments were analyzed by high-performance liquid chromatography coupled to tandem mass spectrometry analysis. The HPLC consisted of a Shimadzu Nexera HPLC System with a SIL-30AC autosampler, a LC-30AD pump, a CTO-20AC column oven, and a CBM-20A controller (Shimadzu). The reverse-phase chromatography of compounds was accomplished with a Brownlee SPP RP-Amide column with 4.6 × 100 mm inner dimensions, a particle size of 2.7 μm, and a preceding Phenomenex C-18 guard column. The mobile phase was composed of an organic additive with acetonitrile:methanol 6:1 (v/v) in total concentrations between 3% and 50% (v/v) and 0.1% (v/v) formic acid in the aqueous component of the eluent. During separation, the column oven was held at 40 °C and the mobile phase was maintained at a flow rate of 300 or 400 μl/min. After separation, the detection of substances was performed with an API 4000 tandem mass spectrometer (AB SCIEX, https://sciex.com/support/software-support/software-downloads), followed by quantification of results with the Analyst software (AB SCIEX, version 1.6.2). The composition of chromatographic conditions, as well as detailed mass spectrometric detection parameters, are listed in Table S5.
(§3) Transport-mediated net uptake was determined as fold-increase of transporter-overexpressing cells over empty vector–transfected control cells.

SLC22A18 = target: T3, SLC22A18 (Homo sapiens, UniProt Q96BI1); test: Uptake ratio screen, SLC22A18-overexpressing HEK293 over empty vector cells; format: cell-based; details: 2.5 μM (nicotine 10 μM), 2 min
T3 construct: by amplifying the entire gene-of-interest within the HEK293 genome via a long-range PCR
T3 sequence (Q96BI1 whole entry): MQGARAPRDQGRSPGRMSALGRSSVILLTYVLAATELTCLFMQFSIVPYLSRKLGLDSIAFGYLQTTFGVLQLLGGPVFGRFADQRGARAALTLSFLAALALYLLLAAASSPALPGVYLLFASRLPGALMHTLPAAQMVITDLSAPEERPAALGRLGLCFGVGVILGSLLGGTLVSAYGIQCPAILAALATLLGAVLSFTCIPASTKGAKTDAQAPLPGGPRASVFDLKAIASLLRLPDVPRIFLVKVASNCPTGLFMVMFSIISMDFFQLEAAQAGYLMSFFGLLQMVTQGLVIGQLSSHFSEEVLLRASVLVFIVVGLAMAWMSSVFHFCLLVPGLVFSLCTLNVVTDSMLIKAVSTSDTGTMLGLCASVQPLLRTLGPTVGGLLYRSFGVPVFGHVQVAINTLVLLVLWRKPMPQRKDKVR
Protocol: as §1
In preparation for transport experiments, 24-well plates were pre-coated with poly-D-lysine (Sigma-Aldrich) and 300,000 cells were plated per well and incubated for 48 h. Firstly, the 24-well plate was placed on a heating plate at 37 °C, and the cells were washed with 37 °C HBSS^+ buffer (Hank’s balanced salt solution supplemented with 10 mM Hepes and adjusted to pH 7.4; Thermo Fisher Scientific). The substance-of-interest, which was diluted in 37 °C HBSS^+ to a desired concentration, was added to the cells for exactly 2 min. […] For variations in seeded cell numbers between the cell lines, several wells were lysed in RIPA buffer and used for total protein quantification using a bicinchoninic assay ([74]) and bovine serum albumin as calibration.
The intracellular drug concentrations after transport experiments were analyzed by high-performance liquid chromatography coupled to tandem mass spectrometry analysis. […] After separation, the detection of substances was performed with an API 4000 tandem mass spectrometer (AB SCIEX, https://sciex.com/support/software-support/software-downloads), followed by quantification of results with the Analyst software (AB SCIEX, version 1.6.2). […]

SLC38A10 = SLC38A10 (Homo sapiens, UniProt Q9HBR0); details: for Vmax (±SEM): SLC38A10, HEK293, net uptake over empty vector cells
Chain of SLC38A10 (Q9HBR0 whole entry): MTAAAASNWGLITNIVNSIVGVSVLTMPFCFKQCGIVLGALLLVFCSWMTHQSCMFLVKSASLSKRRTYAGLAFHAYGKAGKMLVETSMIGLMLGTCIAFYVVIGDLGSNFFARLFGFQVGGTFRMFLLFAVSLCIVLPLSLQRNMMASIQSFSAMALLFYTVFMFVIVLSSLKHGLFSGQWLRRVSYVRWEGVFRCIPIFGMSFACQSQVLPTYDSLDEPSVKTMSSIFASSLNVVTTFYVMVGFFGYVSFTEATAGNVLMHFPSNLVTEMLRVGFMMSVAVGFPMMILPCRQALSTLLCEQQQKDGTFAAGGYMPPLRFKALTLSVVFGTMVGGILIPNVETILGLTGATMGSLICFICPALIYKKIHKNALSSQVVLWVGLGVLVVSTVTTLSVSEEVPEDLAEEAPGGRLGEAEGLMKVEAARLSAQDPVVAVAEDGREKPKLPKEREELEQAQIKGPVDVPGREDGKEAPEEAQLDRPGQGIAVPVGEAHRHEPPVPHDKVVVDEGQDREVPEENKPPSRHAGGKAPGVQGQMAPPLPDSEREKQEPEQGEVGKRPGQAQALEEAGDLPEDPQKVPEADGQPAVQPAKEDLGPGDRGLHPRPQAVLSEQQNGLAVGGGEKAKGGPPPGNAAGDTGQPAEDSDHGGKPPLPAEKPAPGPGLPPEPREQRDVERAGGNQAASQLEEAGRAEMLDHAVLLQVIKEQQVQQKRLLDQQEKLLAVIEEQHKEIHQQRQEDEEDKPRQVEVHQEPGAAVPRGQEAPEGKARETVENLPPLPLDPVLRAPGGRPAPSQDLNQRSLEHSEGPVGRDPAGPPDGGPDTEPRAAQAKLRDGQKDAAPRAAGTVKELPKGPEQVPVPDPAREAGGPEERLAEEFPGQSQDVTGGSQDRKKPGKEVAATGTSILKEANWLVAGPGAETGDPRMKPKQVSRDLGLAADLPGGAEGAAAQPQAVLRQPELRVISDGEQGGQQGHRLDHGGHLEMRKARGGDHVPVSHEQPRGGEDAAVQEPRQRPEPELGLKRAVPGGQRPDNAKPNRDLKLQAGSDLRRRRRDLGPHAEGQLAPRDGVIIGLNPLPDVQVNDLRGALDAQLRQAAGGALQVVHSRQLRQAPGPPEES

SLC35G3 [3] = target: T1, SLC35G3; details: ratio of Vmax over KM
SLC47A1 = target: T4, SLC47A1 (Homo sapiens, UniProt Q96FL8); test: Uptake ratio screen, SLC47A1-overexpressing HEK293 over empty vector cells; format: cell-based; details: 2.5 μM, 2 min
T4 sequence (Q96FL8 1-570): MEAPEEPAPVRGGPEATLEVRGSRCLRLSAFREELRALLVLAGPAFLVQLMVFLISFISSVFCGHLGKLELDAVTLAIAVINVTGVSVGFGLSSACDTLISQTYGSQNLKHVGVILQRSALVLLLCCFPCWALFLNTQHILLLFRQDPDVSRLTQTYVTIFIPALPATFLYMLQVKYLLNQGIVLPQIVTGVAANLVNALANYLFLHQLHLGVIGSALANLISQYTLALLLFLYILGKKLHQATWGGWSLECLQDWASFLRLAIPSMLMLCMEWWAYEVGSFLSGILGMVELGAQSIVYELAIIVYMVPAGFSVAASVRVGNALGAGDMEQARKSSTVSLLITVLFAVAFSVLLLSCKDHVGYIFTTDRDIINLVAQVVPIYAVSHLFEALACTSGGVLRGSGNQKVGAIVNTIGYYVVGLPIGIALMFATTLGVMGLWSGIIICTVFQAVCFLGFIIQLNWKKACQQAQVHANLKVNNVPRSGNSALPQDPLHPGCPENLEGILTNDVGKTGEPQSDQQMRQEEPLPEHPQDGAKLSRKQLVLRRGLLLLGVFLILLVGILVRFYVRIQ
Protocol: as §1, §2
(§4) The intracellular drug concentrations after transport experiments were analyzed by high-performance liquid chromatography coupled to tandem mass spectrometry analysis. The HPLC consisted of a Shimadzu Nexera HPLC System with a SIL-30AC autosampler, a LC-30AD pump, a CTO-20AC column oven, and a CBM-20A controller (Shimadzu). The reverse-phase chromatography of compounds was accomplished with a Brownlee SPP RP-Amide column with 4.6 × 100 mm inner dimensions, a particle size of 2.7 μm, and a preceding Phenomenex C-18 guard column. […] After separation, the detection of substances was performed with an API 4000 tandem mass spectrometer (AB SCIEX, https://sciex.com/support/software-support/software-downloads), followed by quantification of results with the Analyst software (AB SCIEX, version 1.6.2). […]
as §3

SLC47A2 = SLC47A2 (Homo sapiens, UniProt Q86VL8); test: Uptake ratio screen, SLC47A2-overexpressing HEK293 over empty vector cells; format: cell-based; details: 2.5 μM, 2 min
Chain of SLC47A2 (Q86VL8 1-566 isoform Q86VL8-3): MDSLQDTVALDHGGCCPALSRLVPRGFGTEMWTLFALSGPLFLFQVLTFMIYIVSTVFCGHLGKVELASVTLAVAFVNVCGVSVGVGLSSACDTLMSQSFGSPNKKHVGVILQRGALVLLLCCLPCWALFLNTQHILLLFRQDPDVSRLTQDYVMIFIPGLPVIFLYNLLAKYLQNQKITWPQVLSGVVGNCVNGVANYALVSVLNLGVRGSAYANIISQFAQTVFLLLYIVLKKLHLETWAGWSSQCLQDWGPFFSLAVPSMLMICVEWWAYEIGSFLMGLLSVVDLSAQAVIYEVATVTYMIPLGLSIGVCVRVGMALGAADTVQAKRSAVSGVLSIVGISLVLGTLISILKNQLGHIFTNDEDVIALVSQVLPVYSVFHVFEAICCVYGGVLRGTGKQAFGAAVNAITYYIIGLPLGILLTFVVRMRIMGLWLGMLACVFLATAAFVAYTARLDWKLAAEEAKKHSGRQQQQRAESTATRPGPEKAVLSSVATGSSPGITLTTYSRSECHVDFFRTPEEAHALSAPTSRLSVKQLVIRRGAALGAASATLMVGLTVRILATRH
Protocol: as §1, §2, §4, §3

Structure (SMILES) | Uptake data for SLC35G3, mean value (fold-increase over empty vector control) (SLC35G3 [1]) | Uptake by SLC22A15 (in words) (SLC22A15) | Vmax (±SEM) (SLC38A10) | also measured
CCCNC(C)C(=O)Nc1c(C)csc1C(=O)OC (centres unmarked) [Articaine] | 2.91 | – | – | Clint (±SEM) (SLC35G3 [2]): 2.04 (±2.24) μl × mg protein^-1 × min^-1
CN1CCC[C@H]1c1cccnc1 [Nicotine] | – | significantly increased the uptake | 48.4 (±7.26) pmol × mg protein^-1 × min^-1 | Uptake by SLC22A18 (in words) (SLC22A18): newly identified substrates; Clint (±SEM) (SLC38A10; SLC38A10, ratio of Vmax over KM): 0.78 (±0.57) μl × mg protein^-1 × min^-1
CC(N)Cc1ccccc1 (centres unmarked) [Amphetamine] | 1.28 | – | 97.4 (±11.1) pmol × mg protein^-1 × min^-1 | –
CCOC(=O)C1(c2ccccc2)CCN(C)CC1 [Meperidine] | – | significantly increased the uptake | – | Clint (±SEM) (SLC35G3 [3]): 4.60 (±4.78) μl × mg protein^-1 × min^-1
C[N+](C)(C)[C@@H](Cc1c[nH]c(=S)[nH]1)C(=O)[O-] [Ergothionine] | 1.67 | did not measure significant uptake | – | –
C[C@]12CC[C@@H]3c4ccc(OS(=O)(=O)O)cc4CC[C@H]3[C@@H]1CCC2=O [estrone-3-sulfate] | – | – | – | Uptake by SLC47A1 (MATE1) (in words) (SLC47A1): confirmed to be transported; Uptake by SLC47A2 (MATE2K) (in words) (SLC47A2): confirmed to be transported
